Measurements published in article PMC6509186, “Nontypeable Haemophilus influenzae Has Evolved Preferential Use of N-Acetylneuraminic Acid as a Host Adaptation” (mBio, 2019).
Read-outs that look alike come from different tables or passages of the source.

Target: T1, CMP-Neu5Ac synthetase (SiaB) (Haemophilus influenzae, UniProt Q57140)
T1 construct: gene neuA; full-length siaB in pET51-Ek/LIC, N-terminal 6xHis tag (so in the source) kept; expressed in E. coli, Talon purified; 24,800 Da; amine-coupled to CM5 chip
Assay: surface plasmon resonance, immobilised SiaB
Type: binding

[1] = 20 mM MgCl2, 0.2 M MOPS, pH 8.1, 37°C, enzyme amine-coupled to CM5 chip

Row | SMILES | Kd | Kd [1]
1 | Nc1ccn([C@@H]2O[C@H](COP(=O)(O)OP(=O)(O)OP(=O)(O)O)[C@@H](O)[C@H]2O)c(=O)n1 [CTP] | > 200000 nM | 
2 | O=C(CO)N[C@H]1[C@H]([C@H](O)[C@H](O)CO)OC(O)(C(=O)O)C[C@@H]1O (stereo partly drawn) [Neu5Gc] |  | 1000 nM
3 | CC(=O)N[C@H]1[C@H]([C@H](O)[C@H](O)CO)OC(O)(C(=O)O)C[C@@H]1O (stereo partly drawn) [Neu5Ac] |  | 1.2 nM
